Earlier results in patent publication US20020028808A1, “Use of potassium channel agonists for the treatment of cancer” (priority 2000, published 2002).
Where two headings read alike, the source gives them in different places.

What was measured:
[1] = test system: healthy individuals
[2] = target: T1, KATP-channels on pancreatic beta-cells (Homo sapiens, UniProt Q09428+Q14654); conditions: by activation of KATP-channels
T1 construct: KATP-channels on pancreatic beta-cells; host or cells: pancreatic beta-cells
T1 sequence (Q09428 whole entry): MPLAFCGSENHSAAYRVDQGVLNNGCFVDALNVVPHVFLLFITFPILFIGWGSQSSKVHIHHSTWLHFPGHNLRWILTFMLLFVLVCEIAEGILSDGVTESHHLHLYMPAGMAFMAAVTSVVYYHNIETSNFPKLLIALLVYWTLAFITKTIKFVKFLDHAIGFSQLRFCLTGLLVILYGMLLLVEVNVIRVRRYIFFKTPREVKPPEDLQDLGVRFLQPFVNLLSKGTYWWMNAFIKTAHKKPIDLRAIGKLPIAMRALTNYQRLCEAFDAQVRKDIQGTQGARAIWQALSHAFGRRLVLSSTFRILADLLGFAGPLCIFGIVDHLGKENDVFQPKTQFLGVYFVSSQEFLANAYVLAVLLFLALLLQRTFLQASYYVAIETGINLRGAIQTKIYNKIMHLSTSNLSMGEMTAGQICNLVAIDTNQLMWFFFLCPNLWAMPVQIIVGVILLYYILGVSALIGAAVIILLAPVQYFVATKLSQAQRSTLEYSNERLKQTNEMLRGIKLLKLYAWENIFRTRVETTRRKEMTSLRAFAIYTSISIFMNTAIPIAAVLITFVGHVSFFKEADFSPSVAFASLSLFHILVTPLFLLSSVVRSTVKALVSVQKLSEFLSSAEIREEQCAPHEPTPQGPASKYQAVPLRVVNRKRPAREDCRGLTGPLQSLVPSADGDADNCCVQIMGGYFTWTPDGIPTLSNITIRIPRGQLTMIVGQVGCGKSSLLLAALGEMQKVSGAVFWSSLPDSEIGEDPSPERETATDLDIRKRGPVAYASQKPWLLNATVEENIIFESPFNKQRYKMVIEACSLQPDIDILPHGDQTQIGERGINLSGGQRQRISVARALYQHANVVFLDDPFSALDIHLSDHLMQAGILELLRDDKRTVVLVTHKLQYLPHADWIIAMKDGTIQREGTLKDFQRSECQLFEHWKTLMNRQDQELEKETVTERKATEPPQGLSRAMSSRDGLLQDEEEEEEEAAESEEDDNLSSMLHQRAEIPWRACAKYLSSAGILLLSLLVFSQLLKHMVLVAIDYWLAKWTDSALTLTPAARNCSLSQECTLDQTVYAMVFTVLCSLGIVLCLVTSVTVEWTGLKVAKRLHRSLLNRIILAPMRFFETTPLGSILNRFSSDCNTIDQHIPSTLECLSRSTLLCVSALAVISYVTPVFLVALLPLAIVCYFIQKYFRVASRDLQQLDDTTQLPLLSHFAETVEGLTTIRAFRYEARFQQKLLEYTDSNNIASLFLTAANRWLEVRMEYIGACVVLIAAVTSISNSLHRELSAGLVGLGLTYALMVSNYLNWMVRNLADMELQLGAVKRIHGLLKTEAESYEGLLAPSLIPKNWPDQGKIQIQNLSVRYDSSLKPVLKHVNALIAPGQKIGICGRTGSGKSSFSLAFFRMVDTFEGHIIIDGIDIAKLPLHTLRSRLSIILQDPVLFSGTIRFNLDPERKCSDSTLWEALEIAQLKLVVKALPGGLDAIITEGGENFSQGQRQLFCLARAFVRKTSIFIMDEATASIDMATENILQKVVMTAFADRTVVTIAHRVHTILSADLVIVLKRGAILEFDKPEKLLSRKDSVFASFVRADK
T1 sequence (Q14654 whole entry): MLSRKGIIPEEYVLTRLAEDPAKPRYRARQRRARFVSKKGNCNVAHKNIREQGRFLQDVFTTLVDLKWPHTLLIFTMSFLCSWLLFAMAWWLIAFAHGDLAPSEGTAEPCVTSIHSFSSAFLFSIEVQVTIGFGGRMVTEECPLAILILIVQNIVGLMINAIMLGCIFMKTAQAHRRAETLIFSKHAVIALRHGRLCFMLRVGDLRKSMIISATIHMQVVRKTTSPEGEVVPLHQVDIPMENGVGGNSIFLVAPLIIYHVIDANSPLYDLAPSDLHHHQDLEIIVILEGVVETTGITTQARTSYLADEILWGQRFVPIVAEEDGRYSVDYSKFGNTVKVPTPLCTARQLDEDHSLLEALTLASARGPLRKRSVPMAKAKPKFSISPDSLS

[3] = test system: adipose tissue of Zucker rats
[4] = test system: patients suffering from insulinoma and nesidioblastosis

insulin release [2]: inhibit insulin release
Structure (SMILES): CC1=Nc2ccc(Cl)cc2S(=O)(=O)N1 [diazoxide, 7-chloro-3-methyl-2H-1,2,4-benzothiadiazine 1,1-dioxide]
glucose stimulated insulin release [1]: reduces glucose stimulated insulin release | leptin and lipid metabolising enzymes [3]: down-regulate leptin and lipid metabolising enzymes | abnormal hyperinsulinaemia ([4]; nesidioblastosis (PHHI, persistent hyperinsulinaemia and hypoglycemia of infancy)): ameliorates the abnormal hyperinsulinaemia | abnormal hyperinsulinaemia ([4]; patients suffering from insulinoma): ameliorates the abnormal hyperinsulinaemia
